The record followed here is the Deep4Chem optical property database.

A short description of this data set: solvent given as SMILES.

For the setting “in Cc1ccccc1”, `COc1ccc2c(c1)-c1nc(-c3ccccc3)c3ccccc3[n+]1[B-](F)(F)O2` returned an absorption maximum of 434 nm.
On to `O=C1c2cc(-n3c4ccccc4c4ccccc43)ccc2S(=O)(=O)c2ccc(-n3c4ccccc4c4ccccc43)cc21`, for which the absorption maximum is 406 nm (in C1CCOC1); 406 nm (in CCCCCC); 406 nm (in Cc1ccccc1); 406 nm (in ClC(Cl)Cl); 406 nm (in ClCCl).
In turn, `CCCn1c2cccc3c2[c+]2c4c1cccc4n(CCC)c1cccc(c12)n3CCC` gave an absorption maximum (in CC#N) of 521 nm.
The compound `CN(c1ccccc1)c1ccc(-c2ccc(-c3ccc(N(C)c4ccccc4)cc3)c3nc(-c4ccccc4)c(-c4ccccc4)nc23)cc1` returned an absorption maximum (in ClC(Cl)Cl) of 476 nm.
Consider `COc1ccc2c(-c3nc(-c4ccccc4Cl)no3)cc(=O)oc2c1`, for which the absorption maximum (in CCO) is on record as 354 nm and the absorption maximum (in ClC(Cl)Cl) is 355 nm.
For the compound `Cc1cc(C)c(C2=[N+]3C(=Cc4c(C)cc(C)n4[B-]3(F)F)c3ccccc32)[nH]1`, the absorption maximum runs as follows: (in C1CCOC1) 609 nm; (in CC#N) 601 nm; (in CCCCCC) 610 nm; (in CO) 603 nm; (in Cc1ccccc1) 616 nm; (in ClCCl) 609 nm.
In turn, `CC1(C)c2ccccc2N(c2ccc3c(c2)c2ccccc2n2c4ccccc4nc32)c2ccccc21` gave an absorption maximum (in Cc1ccccc1) of 376 nm.
On to `COc1cc2sc3cc(OC)c(F)cc3c(=O)c2cc1F`, for which the absorption maximum (in CS(C)=O) is 316 nm.
Where the note is “in ClCCl”, `CC(C)[Si](C#Cc1c2cc3ccccc3cc2c(C#C[Si](C(C)C)(C(C)C)C(C)C)c2cc3ccccc3cc12)(C(C)C)C(C)C` gave an absorption maximum of 643 nm.
In turn, `CCCCCCCCCCOc1ccc(C#Cc2cc3c(C#Cc4ccc(OCCCCCCCCCC)cc4)c(C#Cc4ccc(OCCCCCCCCCC)cc4)c4cc(C#Cc5ccc(OCCCCCCCCCC)cc5)cc5c(C#Cc6ccc(OCCCCCCCCCC)cc6)c(C#Cc6ccc(OCCCCCCCCCC)cc6)c(c2)c3c45)cc1` showed an absorption maximum (in ClCCl) of 421 nm.
Consider `CCN1c2ccc(/C=N/Nc3ccccn3)cc2Sc2cc(-c3ccc(OC)cc3)ccc21`, for which the absorption maximum (in C1CCOC1) amounted to 381 nm, the absorption maximum (in CS(C)=O) turned out to be 386 nm, the absorption maximum (in Cc1ccccc1) stood at 380 nm and the absorption maximum (in ClCCl) stood at 383 nm.
`CC(C)(C)c1ccc2c(c1)c1cc(C(C)(C)C)ccc1n2-c1ccc2c(c1)C(=O)c1ccc(-n3c4ccc(C(C)(C)C)cc4c4cc(C(C)(C)C)ccc43)cc1C2=O` showed an absorption maximum (in Cc1ccccc1) of 463 nm.
Turning to `CC1=CS[C@]2(C)C1=C1C(=C3C(C)=C(c4ccc(-c5nc(-c6ccccc6)c(-c6ccccc6)[nH]5)cc4)S[C@]32C)C(F)(F)C(F)(F)C1(F)F`, the absorption maximum (in C1CCOC1) stood at 565 nm.
Same read-out and setting: the same measure for `CCCCCCC1(CCCCCC)c2cc(-c3nc(-c4ccc5c(c4)C(CCCCCC)(CCCCCC)c4cc(N6c7ccccc7Oc7ccccc76)ccc4-5)nc(-c4ccc5c(c4)C(CCCCCC)(CCCCCC)c4cc(N6c7ccccc7Oc7ccccc76)ccc4-5)n3)ccc2-c2ccc(N3c4ccccc4Oc4ccccc43)cc21`: 391 nm.
The compound `COc1ccccc1C1=[N+]2C(=Cc3c4c(c(-c5ccccc5OC)n3[B-]2(F)F)C2CCC4CC2)C2=C1C1CCC2CC1` showed an absorption maximum (in ClCCl) of 550 nm.
`CCCCOc1ccc(-c2oc3cc4n(c3c2-c2ccc(OCCCC)cc2)[B-](F)(F)[N+]2=Cc3cc5oc(-c6ccc(OCCCC)cc6)c(-c6ccc(OCCCC)cc6)c5n3[B-](F)(F)[N+]2=C4)cc1` registered an absorption maximum (in C1CCOC1) of 596 nm; an absorption maximum (in CN(C)C=O) of 593 nm; an absorption maximum (in CS(C)=O) of 594 nm; an absorption maximum (in Cc1ccccc1) of 608 nm; an absorption maximum (in ClC(Cl)Cl) of 610 nm; an absorption maximum (in ClCCl) of 606 nm.
As for `O=c1oc2ccc(Br)cc2cc1-c1cc2cc(Br)ccc2o1`, the absorption maximum reads like this: (in CC#N) 370 nm; (in CCOC(C)=O) 371 nm; (in CS(C)=O) 374 nm; (in Cc1ccccc1) 377 nm; (in O) 331 nm.
`[O-][n+]1c(/C=C/C=C/c2ccccc2)nc(N2CCOCC2)c2c1CCCC2`: the absorption maximum (in ClCCl) is 400 nm.
Take `CCc1c(C)c2n(c1C)[B-](F)(F)[N+]1=C(NCc3ccc(OC)cc3)C=CC1=C2C`: the absorption maximum by setting is: (in CC#N) 524 nm; (in CCCCCC) 534 nm; (in CCOC(C)=O) 527 nm; (in CO) 525 nm; (in ClCCl) 531 nm.
In the case of `CC1=[N+]2C(=C(Oc3cc(C)c4c(c3)CC[C@@](C)(CCC[C@H](C)CCC[C@H](C)CCCC(C)C)O4)c3ccc(C)n3[B-]2(F)F)C=C1c1cc2n(c1)[B-](F)(F)[N+]1=CC=CC1=C2c1c(C)cc(C)cc1C`, the absorption maximum reads like this: (in C1CCCCC1) 570.5 nm; (in CCOC(C)=O) 575 nm.
On to `COC1(OC)C2(Cl)c3nc4cc(-c5cccs5)ccc4nc3C1(Cl)C1C[C@H]3[C@@H](CC12)C1(Cl)c2nc4ccc(-c5cccs5)cc4nc2C3(Cl)C1(OC)OC` (stereo not given in full), for which the absorption maximum stood at 366 nm (in CC#N); 358 nm (in CCCCCC); 362 nm (in CCOC(C)=O); 368 nm (in CO); 362 nm (in Cc1ccccc1); 366 nm (in ClC(Cl)Cl). This compound also returned an absorption maximum (in ClCCl) of 367 nm.
Turning to `CC(C)[Si](C#Cc1c2ccccc2c(C#C[Si](C(C)C)(C(C)C)C(C)C)c2nc3c(nc12)Cc1ccccc1-3)(C(C)C)C(C)C`, the absorption maximum (in CCCCCC) was 486 nm.
On to `O=c1[nH]c2ccccc2[nH]1`, for which the absorption maximum worked out at 291 nm (in C1CCOC1); 281 nm (in CC#N); 285 nm (in CC(C)=O); 292 nm (in CCCCCCC); 287 nm (in CCCCCl); 280 nm (in CCCCO). Further, the absorption maximum came to 280 nm (in CCCO), 280 nm (in CCCOCCC) and 280 nm (in CCO).
Compound `N#Cc1c(-n2c3ccc(Cl)cc3c3cc(Cl)ccc32)c(C#N)c(-n2c3ccc(Cl)cc3c3cc(Cl)ccc32)c(-n2c3ccc(Cl)cc3c3cc(Cl)ccc32)c1-n1c2ccc(Cl)cc2c2cc(Cl)ccc21` gave an absorption maximum (in Cc1ccccc1) of 384 nm.
The same measure, in the same setting: the same measure for `CCCC1=Cc2nc1ccc1[nH]c(cc1CCC)c1nc(c3ccccc3c3[nH]c2cc3CCC)C(CCC)=C1`: 762 nm.
`CCCCN1C(=O)c2ccc3c4c(Br)cc5c6c(ccc(c7c(Br)cc(c2c37)C1=O)c64)C(=O)N(CCCC)C5=O` registered an absorption maximum (in ClC(Cl)Cl) of 524 nm.
Turning to `CCC1=C(C)C2=C(c3ccc(-c4c5ccccc5c(-c5ccccc5)c5ccccc45)cc3)c3c(C)c(CC)c(C)n3[B-](F)(F)[N+]2=C1C`, the absorption maximum reads like this: (in CC#N) 523 nm; (in CCCCCC) 526 nm; (in CCO) 525 nm; (in CN(C)C=O) 526 nm; (in Cc1ccccc1) 529 nm; (in ClCCl) 527 nm.
Under “in CS(C)=O”, `C[N+]1=C(/C=C/C=C2/N(CCC[N+](C)(C)C)c3ccc(Br)cc3C2(C)C)C(C)(C)c2ccccc21` yielded an absorption maximum of 556 nm.
`CC1=CC(C)=[N+]2C1=C(c1ccc(I)cc1)c1c(C)cc(C)n1[B-]2(Oc1ccc(Cl)cc1)Oc1ccc(Cl)cc1` gave an absorption maximum (in ClC(Cl)Cl) of 506 nm.
Turning to `C(=C\c1cc[n+]2ccc(/C=C/c3ccsc3)cc2c1)/c1ccsc1`, the absorption maximum (in CO) is on record as 432 nm.
For `CCN(CC)c1ccc2c(c1)oc(=O)c1cnc3c(cnn3-c3ccccc3)c12`, the absorption maximum (in ClCCl) is recorded as 405 nm.
As to `COc1ccc2oc(=N)c(C#N)cc2c1`, for the setting “in ClCCl”, the absorption maximum was 388 nm.
Compound `CC1=C(I)C(C)=[N+]2C1=C(c1c(-c3ccccn3)nc3ccccn13)c1c(C)c(I)c(C)n1[B-]2(F)F` gave an absorption maximum (in ClCCl) of 554 nm.
Compound `Cc1nc2cccc(-c3nc4ccc(Cl)cc4o3)c2c(=O)[nH]1` came in with an absorption maximum (in CN(C)C=O) of 310 nm.
The compound `F[B-]1(F)n2cccc2C(c2ccccc2)=C2C=CC(c3ccc(OC4=[N+]5C(=C(c6ccccc6)c6cc(Br)c(Br)n6[B-]5(F)F)C=C4Br)cc3)=[N+]21` returned an absorption maximum (in ClC(Cl)Cl) of 562 nm.
For the compound `COc1cc(C2=c3c(c4ccc(C(C)(C)C)cc4c4cc(C(C)(C)C)ccc34)=[N+]3C2=Nc2c(-c4cc(OC)c(OC)c(OC)c4)c4c5ccc(C(C)(C)C)cc5c5cc(C(C)(C)C)ccc5c4n2[B-]3(F)F)cc(OC)c1OC`, the absorption maximum (in Cc1ccccc1) is 787 nm.
For `CCOC(=O)c1c(-c2cc3ccc(OC)cc3oc2=O)nn(-c2cccc(C)c2)c1C(=O)OCC`, the absorption maximum (in ClCCl) was 337 nm.
On to `Clc1ccc(N2c3sc4ccccc4c3Sc3c2sc2ccccc32)cc1`, for which the absorption maximum (in ClCCl) was 418 nm.
Where the note is “in ClCCl”, `COc1ccc(-c2cc(-c3ccccc3)c3n2[B-](F)(F)[N+]2=C4C=NC=CN4[B-](F)(F)[N+]2=C3)cc1` came in with an absorption maximum of 534 nm.
On to `O=C1c2ccccc2-c2ccc(Nc3nc(Cl)nc(Cl)n3)c3cccc1c23`, for which the absorption maximum is 405.02 nm (in CC(C)=O); 411.86 nm (in CC(C)O); 400.96 nm (in CCCCOCCCC); 403.06 nm (in CCOC(C)=O); 410 nm (in CO); 411.02 nm (in Cc1ccccc1). Besides, the absorption maximum is, setting by setting: (in Clc1ccccc1) 410 nm; (in O=C1CCCCC1) 410 nm.
On to `Cc1cc(C)c(C2=C3C=C(c4ccc(C(C)(C)C)cc4)C(c4ccc(C(C)(C)C)cc4)=[N+]3[B-](F)(F)n3c2cc(-c2ccc(C(C)(C)C)cc2)c3-c2ccc(C(C)(C)C)cc2)c(C)c1`, for which the absorption maximum (in C1CCCCC1) is on record as 602 nm; the absorption maximum (in C1CCOC1) was 602 nm; the absorption maximum (in CC#N) worked out at 592 nm; the absorption maximum (in Cc1ccccc1) turned out to be 606 nm; the absorption maximum (in ClCCl) is 599 nm.
In the case of `ClP1(Cl)=N[P@](Cl)(Oc2ccc3ccc4cccc5ccc2c3c45)=N[P@@](Cl)(Oc2ccc3ccc4cccc5ccc2c3c45)=N1`, the absorption maximum (in ClCCl) stood at 343 nm.
In turn, `CN1c2cc3nc4cc(F)c(F)cc4nc3cc2N(C)C1(C)C` displayed an absorption maximum (in CCO) of 457 nm.
